# Species: Rattus norvegicus
# Assay: DrugMatrix - Regimen: Daily Repeat
# Type: toxicity, organism-based, Sprague-Dawley
# Parameters: regimen Daily Repeat, gender Male, age 6-8 weeks
# Conditions: in vivo, route none, vehicle 100 % UNTREATED
# [1] = 0 mg/kg, 120 h, tissue Blood, dose level Control, time 5 day
# [2] = 0 mg/kg, 120 h, tissue Plasma, dose level Control, time 5 day
# [3] = 0 mg/kg, […], tissue Blood, dose level Control, time 14 day
# [4] = 0 mg/kg, […], tissue Plasma, dose level Control, time 14 day
# [5] = 50 mg/kg, 120 h, tissue Blood, dose level Low, time 5 day
# [6] = 50 mg/kg, 120 h, tissue Plasma, dose level Low, time 5 day
# [7] = 50 mg/kg, […], tissue Blood, dose level Low, time 14 day
# [8] = 50 mg/kg, […], tissue Plasma, dose level Low, time 14 day
# [9] = 60 mg/kg, 120 h, tissue Blood, dose level M1, time 5 day
substance,measurement,setting,value
Diet_Restriction,ABSOLUTE BASOPHIL,[1],0 CELLS/uL
same,ABSOLUTE EOSINOPHIL,[1],42.67 CELLS/uL
same,ABSOLUTE LYMPHOCYTE,[1],11593.33 CELLS/uL
same,ABSOLUTE MONOCYTE,[1],174.33 CELLS/uL
same,ABSOLUTE SEGMENTED NEUTROPHIL,[1],1356.33 CELLS/uL
same,BASOPHIL,[1],0%
same,EOSINOPHIL,[1],0.33%
same,ERYTHROCYTE COUNT,[1],5.67 x10E6/uL
same,HEMATOCRIT,[1],43.37%
same,HEMOGLOBIN,[1],12.33 G/DL
same,LEUKOCYTE COUNT,[1],13.17 x10E3/uL
same,LYMPHOCYTE,[1],88%
same,MEAN CORPUSCULAR HEMOGLOBIN,[1],21.77 pg
same,MEAN CORPUSCULAR HEMOGLOBIN CONCENTRATION,[1],36.93 G/DL
same,MEAN CORPUSCULAR VOLUME,[1],58.9 fL
same,NUCLEATED RED BLOOD CELLS,[1],0 /100WBC
same,PLATELET COUNT,[1],942.33 x10E3/uL
same,ALANINE AMINOTRANSFERASE,[2],42.67 u/L
same,ALBUMIN,[2],4.2 G/DL
same,ALKALINE PHOSPHATASE,[2],336.33 u/L
same,ASPARTATE AMINOTRANSFERASE,[2],74 u/L
same,BLOOD UREA NITROGEN,[2],12.67 mg/dL
same,CARBON DIOXIDE,[2],32.33 mmol/L
same,CHOLESTEROL,[2],78.67 mg/dL
same,CREATINE PHOSPHOKINASE,[2],847.33 u/L
same,CREATININE,[2],0.22 mg/dL
same,LACTATE DEHYDROGENASE,[2],139.67 u/L
same,POTASSIUM,[2],6.74 MEQ/L
same,TOTAL BILIRUBIN,[2],0.13 mg/dL
same,URIC ACID,[2],1.3 mg/dL
same,ABSOLUTE BASOPHIL,[3],0 CELLS/uL
same,ABSOLUTE EOSINOPHIL,[3],46.33 CELLS/uL
same,ABSOLUTE LYMPHOCYTE,[3],13977 CELLS/uL
same,ABSOLUTE MONOCYTE,[3],264.67 CELLS/uL
same,ABSOLUTE SEGMENTED NEUTROPHIL,[3],1445.33 CELLS/uL
same,BASOPHIL,[3],0%
same,EOSINOPHIL,[3],0.33%
same,ERYTHROCYTE COUNT,[3],6.27 x10E6/uL
same,LEUKOCYTE COUNT,[3],15.73 x10E3/uL
same,LYMPHOCYTE,[3],89%
same,MEAN CORPUSCULAR HEMOGLOBIN,[3],22.27 pg
same,MEAN CORPUSCULAR HEMOGLOBIN CONCENTRATION,[3],37.13 G/DL
same,NEUTROPHIL,[3],9%
same,NUCLEATED RED BLOOD CELLS,[3],0 /100WBC
same,PLATELET COUNT,[3],923 x10E3/uL
same,ALANINE AMINOTRANSFERASE,[4],48.67 u/L
same,ALKALINE PHOSPHATASE,[4],360 u/L
same,ASPARTATE AMINOTRANSFERASE,[4],67 u/L
same,CARBON DIOXIDE,[4],32 mmol/L
same,CHLORIDE,[4],99 MEQ/L
same,CHOLESTEROL,[4],92.67 mg/dL
same,CREATINE PHOSPHOKINASE,[4],220.67 u/L
same,CREATININE,[4],0.19 mg/dL
same,LACTATE DEHYDROGENASE,[4],88.33 u/L
same,LIPASE,[4],10 u/L
same,PHOSPHORUS,[4],13.07 mg/dL
same,POTASSIUM,[4],6.69 MEQ/L
same,TOTAL BILIRUBIN,[4],0.17 mg/dL
same,TOTAL PROTEIN,[4],6.33 G/DL
same,URIC ACID,[4],1.9 mg/dL
same,ABSOLUTE BASOPHIL,[5],0 CELLS/uL
same,ABSOLUTE EOSINOPHIL,[5],0 CELLS/uL
same,ABSOLUTE LYMPHOCYTE,[5],5557.67 CELLS/uL
same,ABSOLUTE MONOCYTE,[5],33.33 CELLS/uL
same,ABSOLUTE SEGMENTED NEUTROPHIL,[5],409 CELLS/uL
same,BASOPHIL,[5],0%
same,EOSINOPHIL,[5],0%
same,ERYTHROCYTE COUNT,[5],6.2 x10E6/uL
same,HEMOGLOBIN,[5],13.47 G/DL
same,LEUKOCYTE COUNT,[5],6 x10E3/uL
same,LYMPHOCYTE,[5],93%
same,MEAN CORPUSCULAR HEMOGLOBIN,[5],21.73 pg
same,MEAN CORPUSCULAR HEMOGLOBIN CONCENTRATION,[5],37.13 G/DL
same,MEAN CORPUSCULAR VOLUME,[5],58.43 fL
same,MONOCYTE,[5],0.67%
same,NEUTROPHIL,[5],6.33%
same,NUCLEATED RED BLOOD CELLS,[5],0 /100WBC
same,PLATELET COUNT,[5],1004.67 x10E3/uL
same,ALBUMIN,[6],4.4 G/DL
same,ALKALINE PHOSPHATASE,[6],272.67 u/L
same,ASPARTATE AMINOTRANSFERASE,[6],69 u/L
same,BLOOD UREA NITROGEN,[6],10 mg/dL
same,CHOLESTEROL,[6],67.33 mg/dL
same,CREATININE,[6],0.15 mg/dL
same,GLUCOSE,[6],121.33 mg/dL
same,LACTATE DEHYDROGENASE,[6],95.33 u/L
same,LIPASE,[6],10 u/L
same,PHOSPHORUS,[6],10.03 mg/dL
same,POTASSIUM,[6],6.08 MEQ/L
same,SODIUM,[6],146.6 MEQ/L
same,TOTAL BILIRUBIN,[6],0.13 mg/dL
same,TOTAL PROTEIN,[6],6.27 G/DL
same,URIC ACID,[6],1.13 mg/dL
same,ABSOLUTE BASOPHIL,[7],0 CELLS/uL
same,ABSOLUTE EOSINOPHIL,[7],34 CELLS/uL
same,ABSOLUTE LYMPHOCYTE,[7],10004 CELLS/uL
same,ABSOLUTE MONOCYTE,[7],145.67 CELLS/uL
same,ABSOLUTE SEGMENTED NEUTROPHIL,[7],1049.67 CELLS/uL
same,BASOPHIL,[7],0%
same,EOSINOPHIL,[7],0.33%
same,ERYTHROCYTE COUNT,[7],7.11 x10E6/uL
same,HEMATOCRIT,[7],38.27%
same,LEUKOCYTE COUNT,[7],11.23 x10E3/uL
same,LYMPHOCYTE,[7],89.33%
same,MEAN CORPUSCULAR HEMOGLOBIN,[7],19.8 pg
same,MEAN CORPUSCULAR HEMOGLOBIN CONCENTRATION,[7],36.77 G/DL
same,MEAN CORPUSCULAR VOLUME,[7],53.83 fL
same,NEUTROPHIL,[7],9%
same,NUCLEATED RED BLOOD CELLS,[7],0 /100WBC
same,PLATELET COUNT,[7],891.33 x10E3/uL
same,ALANINE AMINOTRANSFERASE,[8],40.33 u/L
same,ALBUMIN,[8],4.2 G/DL
same,ALKALINE PHOSPHATASE,[8],255.67 u/L
same,ASPARTATE AMINOTRANSFERASE,[8],75 u/L
same,BLOOD UREA NITROGEN,[8],15 mg/dL
same,CHOLESTEROL,[8],62.33 mg/dL
same,CREATINE PHOSPHOKINASE,[8],467.33 u/L
same,CREATININE,[8],0.22 mg/dL
same,GLUCOSE,[8],163.67 mg/dL
same,LACTATE DEHYDROGENASE,[8],62.33 u/L
same,POTASSIUM,[8],5.28 MEQ/L
same,TOTAL BILIRUBIN,[8],0.1 mg/dL
same,TOTAL PROTEIN,[8],6.1 G/DL
same,URIC ACID,[8],1.5 mg/dL
same,ABSOLUTE BASOPHIL,[9],0 CELLS/uL
same,ABSOLUTE EOSINOPHIL,[9],49.33 CELLS/uL
same,ABSOLUTE LYMPHOCYTE,[9],3766.67 CELLS/uL
same,ABSOLUTE MONOCYTE,[9],29.33 CELLS/uL
same,ABSOLUTE SEGMENTED NEUTROPHIL,[9],454.67 CELLS/uL
